According to patent publication US20130045988A1, “COMBINATION THERAPY” (SHIRE AG, priority 2011, published 2013):
Where “and” joins values, the source holds several entries; their conditions need not be identical. Equal values may be shown once. Entries after “also recorded” stand apart in the source; their conditions may differ. Read-outs that look alike come from different tables or passages of the source.

Tests used:
[1] = system: pig gastric circular muscle strips; test: EFS-induced submaximal cholinergic contractions of gastric circular muscle strips
[2] = system: pig colon descendens circular muscle; test: EFS-induced submaximal cholinergic contractions of colon circular muscle strips; conditions: for influence on the facilitating effect of prucalopride on cholinergic neurotransmission: PDE inhibitor before prucalopride, data not shown; for effect on EFS-induced cholinergic contractions: cumulative half log unit increasing concentrations, IBMX effect range 1-30 μM
Experimental: Young male pigs (10-12 weeks, 15-25 kg-breed Line 36) were obtained from […], Belgium. On the morning of the experiment, pigs were anaesthetized with an intramuscular injection of 5 ml Zoletil 100 (containing 50 mg/ml tiletamine and 50 mg/ml zolazepam; Virbac Belgium S.A., Belgium). […] The aerated (5% CO2/95% O2) Krebs-Henseleit solution in the organ baths (see example 11) systematically contained 4 μM of the noradrenergic neuron blocker guanethidine and 0.3 mM of the NO synthase inhibitor Nω-nitro-L-arginine methyl ester hydrochloride (L-NAME) to avoid noradrenergic and […] responses respectively. After 60 min of stabilization with refreshing of the Krebs-Henseleit solution every 15 min, strips were contracted with the muscarinic receptor agonist carbachol (3 μM). This procedure was repeated with a 20-min washout period in between. […] NK3, 0.3 μM SB222200) were added and incubated for 30 min before the first electrical stimulation. […] Strips were then stimulated for 1 hour (12 stimulations) with 5 min interval at supramaximal voltage (35 V) (10 s trains; 0.25 ms pulse duration; frequency of 4 Hz). […] The protocols as described in examples 12 and 13 then started. […] Changes in isometric tension were measured using MLT 050/D force transducers (ADInstruments, United Kingdom) and recorded on a PowerLab/8sp data recording system (ADInstruments, United Kingdom) with Chart v5.5.6 software. The obtained data were analysed as follows: […] Results are expressed as means±S.E.M., n referring to tissues from different animals except when otherwise indicated. Statistical analysis was performed by use of Graphpad Prism […]<0.05 was considered statistically significant. When adding PDE inhibitors cumulatively, the last contraction in the presence of each concentration was compared to the reference by repeated measures ANOVA followed by a Bonferroni corrected t-test. […] A cumulative concentration-response curve for the different PDE inhibitors was obtained by adding them in half log unit increasing concentrations, starting after 5 reproducible contractions at V50% had been obtained and registering the responses to 6 trains (30 min) after adding each concentration. Parallel to the cumulative concentration-response curve of rolipram, an isolated concentration-response curve was obtained by adding one single concentration per tissue in 3 animals. […] The solvents DMSO and ethanol were tested separately by adding them cumulatively in the matching dilutions as for the cumulative concentration series of the corresponding PDE inhibitor.

[3] = system: cholinergic neurons innervating pig gastric circular muscle; test: EFS-induced acetylcholine release (total radioactivity/tritium outflow) from pig gastric circular muscle strips
PDE = conditions: Beavo and Reifsnyder, 1990; read-out: IC50 range; cited from earlier work
[4] = prucalopride 0.03, 0.1 or 0.3 μM

For `COCCCN1CCC(NC(=O)c2cc(Cl)c(N)c3c2OCC3)CC1` [prucalopride, 4-amino-5-chloro-2,3-di-hydro-N-[r-(3-methoxypropyl)-4-piperidinyl]-7-benzo-furan-carboxamide], the “electrically induced contractions, % of mean of 5 contractions before” value (from here on “electrically induced contractions, %”) ([1]; 0.01 μM prucalopride alone) was 162±11%, the “electrically induced contractions, %” value ([1]; 0.03 μM prucalopride alone) was 171±15% and the “electrically induced contractions, %” value ([1]; 0.1 μM prucalopride alone) was 206±10%. For the same compound, the “effect on amplitude of the EFS-induced contractions” value [1, 4] was “progressively enhanced the amplitude of the EFS-induced contractions”, the “influence on basal tone of the strips” value [1, 4] was “did not influence the basal tone of the strips” and the “effect on EFS-induced cholinergic submaximal contractions” value ([2]; 1 μM prucalopride) was “systematically enhanced EFS-induced cholinergic submaximal contractions”. The “S1, EFS-induced outflow of total radioactivity above baseline” value (shortened to “S1, EFS-induced outflow”) [3] was 68328 ± 11006 dpm g^−1 tissue and 91698 ± 24563 dpm g^−1 tissue and 61343 ± 11445 dpm g^−1 tissue and 50543 ± 3791 dpm g^−1 tissue, the “S2, EFS-induced outflow of total radioactivity above baseline” value (from here on “S2, EFS-induced outflow”) ([3]; 0.03 μM prucalopride added 15 min before S2) was 62398 ± 8272 dpm g^−1 tissue and the “influence on EFS-induced tritium outflow” value ([3]; 0.03 μM prucalopride alone) was “enhanced EFS-induced tritium outflow”. For the same compound, the “S2, EFS-induced outflow” value ([3]; 0.1 μM prucalopride added 15 min before S2) was 91877 ± 21668 dpm g^−1 tissue, the “S2, EFS-induced outflow” value ([3]; 0.3 μM prucalopride added 15 min before S2) was 61498 ± 9813 dpm g^−1 tissue and 52591 ± 2950 dpm g^−1 tissue and the “influence on basal tritium outflow” value ([3]; prucalopride 0.03, 0.1 and 0.3 μM) was “did not influence the basal outflow”.
With `CN1[C@@H]2CC[C@H]1C[C@@H](OC(=O)C(CO)c1ccccc1)C2` (some centres unmarked) [atropine] the “effect on EFS-induced contractions at V50% C” value [1] was “abolished”.
For `CCOC(=O)C1=C[C@]2(CC)CCCN3CCc4c(n1c1ccccc41)[C@@H]32` [vinpocetine], the “influence on submaximal cholinergic contractions” value ([1]; vinpocetine 0.01-10 μM) was “did not significantly influence the submaximal cholinergic contractions”, the “influence on the facilitating effect of prucalopride on cholinergic neurotransmission” value [2] was “did not influence the facilitating effect of prucalopride on cholinergic neurotransmission” and the “influence on basal tritium outflow” value ([3]; PDE inhibitor alone, 10 μM) was “None of these PDE-inhibitors alone influenced basal tritium outflow”.
For `CC(C)n1c(=O)c(C(=O)N[C@H]2C[C@H]3CC[C@@H](C2)N3C[C@@H](O)CN(C)S(C)(=O)=O)cc2ccccc21` [velusetrag], the “S2/S1 ratio of EFS-induced total radioactivity outflow” value (shortened to “S2/S1 ratio”) [3] was 0.7±0.03.
For `Cn1cc(C(=O)OCC2CCN(CCNS(C)(=O)=O)CC2)c2ccccc21` [GR113808], the “influence per se on EFS-induced contractions” value ([1]; GR113808 1, 10 and 100 nM) was “did not influence the EFS-induced contractions”, the “influence on the facilitating effect of prucalopride on EFS-induced contractions” value ([1]; GR113808 1, 10 and 100 nM versus 0.3 μM prucalopride) was “concentration-dependently inhibited the facilitating effect of 0.3 μM prucalopride” and the “S2, EFS-induced outflow” value ([3]; 1 nM GR113808 added 21 min before 0.3 μM prucalopride) was 43860 ± 4122 dpm g^−1 tissue. The “S2/S1 ratio” value ([3]; 1 nM GR113808 followed by 0.3 μM prucalopride) was 1.05 ± 0.08, the “S2, EFS-induced outflow” value ([3]; 10 nM GR113808 added 21 min before 0.3 μM prucalopride) was 39273 ± 9533 dpm g^−1 tissue and the “S2/S1 ratio” value ([3]; 10 nM GR113808 followed by 0.3 μM prucalopride) was 0.86 ± 0.04. For the same compound, the “S2, EFS-induced outflow” value ([3]; 100 nM GR113808 added 21 min before 0.3 μM prucalopride) was 47590 ± 8293 dpm g^−1 tissue, the “S2/S1 ratio” value ([3]; 100 nM GR113808 followed by 0.3 μM prucalopride) was 0.74 ± 0.05 and the “influence on basal tritium outflow” value ([3]; GR113808 1, 10, 100 nM) was “did not influence basal tritium outflow”. The “influence on the facilitating effect of prucalopride on EFS-induced acetylcholine release” value ([3]; GR113808 1, 10, 100 nM versus 0.3 μM prucalopride) was “concentration-dependently antagonized the facilitating effect of 0.3 μM prucalopride”, the “S1, EFS-induced outflow” value ([3]; first stimulation S1, before drugs, tissues given 1 nM GR113808 then 0.3 μM prucalopride) was 42314 ± 3744 dpm g^−1 tissue and the “S1, EFS-induced outflow” value ([3]; first stimulation S1, before drugs, tissues given 10 nM GR113808 then 0.3 μM prucalopride) was 45180 ± 10235 dpm g^−1 tissue. For the same compound, the “S1, EFS-induced outflow” value ([3]; first stimulation S1, before drugs, tissues given 100 nM GR113808 then 0.3 μM prucalopride) was 49850 ± 8210 dpm g^−1 tissue.
With `O=C(Nc1c(Cl)cncc1Cl)c1ccc(OC(F)F)c(OCC2CC2)c1` [roflumilast] the “S2/S1 ratio” value ([3]; 0.3 μM roflumilast alone, 36 min before S2) was 0.85±0.02.
For `COc1ccc(C2CNC(=O)C2)cc1OC1CCCC1` (centres unmarked) [rolipram], the “mean contractile response to the 10th stimulation train, % of response before administration” value ([1]; 1 μM rolipram alone, before adding prucalopride, three tissue groups) was 114±8% and 115±8% and 122±9%, the “individual contractile response to the 10th stimulation, % of response before administration” value ([1]; 1 μM rolipram alone, single tissues of the group later given 0.03 μM prucalopride) was 96% and 111% and 137% and 155% and 93% and 102% and 101% and 128% and the “influence on submaximal cholinergic contractions” value ([1]; 1-30 μM) was “did not significantly influence the submaximal cholinergic contractions”. For the same compound, the “effect on EFS-induced contractions” value ([2]; 3 μM rolipram, before prucalopride is added) was “did not enhanced the EFS-induced contractions”, the “effect on EFS-induced contractions” value ([2]; 0.1 and 0.3 μM rolipram) was “significant increase of the EFS-induced contractions” and the “influence on basal tritium outflow” value ([3]; PDE inhibitor alone, 1 μM) was “None of these PDE-inhibitors alone influenced basal tritium outflow”.
In the case of `CCCCCC[C@@H]([C@@H](C)O)n1cnc2c(N)ncnc21` (racemic) [EHNA], the “influence on submaximal cholinergic contractions” value ([1]; 1-30 μM) is reported as “did not significantly influence the submaximal cholinergic contractions”, the “influence on the facilitating effect of prucalopride on cholinergic neurotransmission” value [2] is reported as “did not influence the facilitating effect of prucalopride on cholinergic neurotransmission” and the “S2/S1 ratio” value ([3]; 10 μM EHNA alone) is reported as 0.51±0.05. For the same compound, the “influence on basal tritium outflow” value ([3]; PDE inhibitor alone, 10 μM) was “did not influence basal”.
For `NC1=N[C@H](O)[C@H]2[C@H]3O[C@]4(O)O[C@@H]([C@@H](O)[C@@]2(N1)[C@@H]4O)[C@]3(O)CO` [tetrodotoxin], the “effect on EFS-induced contractions at V50% C” value [1] was “abolished”.
With `CN(C(=O)CCCOc1ccc2[nH]c(=O)ccc2c1)C1CCCCC1` [cilostamide] the “contraction at the 10th stimulation train, % of the response before” value ([1]; 1 μM cilostamide alone) was 59±13%, the activity at 3 µM ([1]; Sus scrofa, 3 μM cilostamide, maximal depression, read-out: EFS-induced contraction, reduction to % of response before PDE-inhibitor) was 68 ± 11% and the “influence on submaximal cholinergic contractions” value ([1]; cilostamide 0.01-10 μM) was “reduced the contractions from 0.1 μM onwards”. The “potency versus IBMX in inhibiting EFS-induced cholinergic contractions” value [2] was “about 100 times”, the inhibition at 0.03 µM ([2]; Sus scrofa, 0.03 μM cilostamide) was 75% and the “effect on EFS-induced cholinergic contractions” value [2] was “concentration-dependently inhibited EFS-induced cholinergic contractions”. The “influence on basal tritium outflow” value ([3]; PDE inhibitor alone, 1 μM) was “None of these PDE-inhibitors alone influenced basal tritium outflow”.
In the case of `CC(C)Cn1c(=O)n(C)c(=O)c2[nH]cnc21` [IBMX, 3-isobutyl-1-methyl-xanthine], the “EFS-induced contractions decreased maximally to % of response before” value ([1]; 3 μM IBMX, piglets) is reported as 84±2%, the “effect on EFS-induced cholinergic contractions” value ([1]; 30 μM IBMX) is reported as “nearly abolished” and the “effect on amplitude of the EFS-induced cholinergic contractions” value ([1]; IBMX, half log unit ascending concentrations) is reported as “concentration-dependent reduction of the amplitude of the EFS-induced cholinergic contractions from 3 μM onwards”. The “effect on EFS-induced cholinergic contractions” value [2] was “concentration-dependently inhibited EFS-induced cholinergic contractions”, the “influence on EFS-induced tritium outflow” value ([3]; IBMX 10 μM alone) was “nor did it influence EFS-induced tritium outflow; also recorded: did not significantly influence EFS-induced tritium outflow” and the “influence on basal tritium outflow” value ([3]; PDE inhibitor alone, 10 μM) was “did not influence basal”. For the same compound, the IC50 (PDE) was 2 to 50 µM.
